The record followed here is article PMC11880984, “Altered O‐glycosylation of β1‐adrenergic receptor N‐terminal single‐nucleotide variants modulates receptor processing and functional activity” (The Febs Journal, 2024).

This test concerns the target T1, hβ1AR (human β1-adrenergic receptor), WT S49 R389 (Homo sapiens, UniProt P08588).
T1 construct: gene ADRB1; full-length WT (S49, R389) with HA signal peptide, N-terminal MYC tag and C-terminal FLAG tag (pFT-SMMF); N-terminal part partly cleaved at R31/L32 in cells
In words: radioligand saturation binding, membranes of stable HEK293i cells.

T1 sequence (P08588 whole entry G389R): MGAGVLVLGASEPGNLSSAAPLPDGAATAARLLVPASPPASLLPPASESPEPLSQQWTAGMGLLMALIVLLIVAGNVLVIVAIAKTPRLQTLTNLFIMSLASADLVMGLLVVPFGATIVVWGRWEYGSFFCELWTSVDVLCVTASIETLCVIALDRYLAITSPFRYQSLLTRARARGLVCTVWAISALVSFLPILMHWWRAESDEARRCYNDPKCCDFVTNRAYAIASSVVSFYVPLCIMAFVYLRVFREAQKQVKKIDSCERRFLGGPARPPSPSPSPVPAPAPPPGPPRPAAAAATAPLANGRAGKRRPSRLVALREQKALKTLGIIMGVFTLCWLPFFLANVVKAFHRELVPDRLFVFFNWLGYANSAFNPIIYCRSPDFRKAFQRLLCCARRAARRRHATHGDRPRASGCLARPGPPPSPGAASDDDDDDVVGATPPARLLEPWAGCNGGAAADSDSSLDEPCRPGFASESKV

As usually defined, the Kd is the free concentration of one partner at which half of the binding sites on the other are occupied at equilibrium, for simple one-to-one binding. High values mean a looser complex, low ones a tighter complex. `CCCc1ccccc1OCC(O)CNC(C)C` (stereo not shown) [[^3H]dihydroalprenolol] showed a Kd of 420 ± 40 pM.
